Calls of active or inactive are those of the source.
How the values were obtained:
[1] = Luminescence Cell-Based Dose Retest to Confirm Inhibitors of Cancer Stem Cells. [Related pubchem assays (depositor defined):AID2717, AID2721]; format: functional; details: Homo sapiens
[2] = cytotoxicity in HMLE control line with eGFP shRNA, dose response, counter-screen for HMLE_sh_ECad selective toxicity project, cell-based, HMLE_sh_eGFP, luminescence (AID 463074); format: functional, Homo sapiens;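 further: HMLE human mammary epithelial cells expressing control shRNA against eGFP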
[3] = target: T1, High affinity choline transporter 1 (Homo sapiens, UniProt Q9GZV3); test: CHT inhibitors, dose response, cell-based, 5-point CRC, membrane potential dye (AID 504840); format: functional
T1 sequence (Q9GZV3 whole entry): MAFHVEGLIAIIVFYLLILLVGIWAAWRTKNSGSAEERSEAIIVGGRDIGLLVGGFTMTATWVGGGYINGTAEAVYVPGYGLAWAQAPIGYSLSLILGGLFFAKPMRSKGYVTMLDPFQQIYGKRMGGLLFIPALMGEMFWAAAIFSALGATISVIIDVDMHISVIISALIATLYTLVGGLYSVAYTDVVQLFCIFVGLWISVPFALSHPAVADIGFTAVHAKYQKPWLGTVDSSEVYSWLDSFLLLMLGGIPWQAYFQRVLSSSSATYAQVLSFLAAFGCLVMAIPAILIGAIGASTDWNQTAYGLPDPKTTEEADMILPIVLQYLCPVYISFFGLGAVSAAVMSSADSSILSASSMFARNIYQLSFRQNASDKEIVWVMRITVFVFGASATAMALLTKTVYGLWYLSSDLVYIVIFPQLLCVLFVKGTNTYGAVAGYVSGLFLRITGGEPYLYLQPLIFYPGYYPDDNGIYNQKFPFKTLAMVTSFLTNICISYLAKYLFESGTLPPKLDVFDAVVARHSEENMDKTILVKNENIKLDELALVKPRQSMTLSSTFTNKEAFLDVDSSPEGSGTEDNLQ

[4] = target: Glyceraldehyde-3-phosphate dehydrogenase (Homo sapiens, UniProt P04406)
[5] = target: Alkaline phosphatase, placental type (Homo sapiens, UniProt P05187); test: PLAP enzyme inhibitors, confirmation, biochemical, luminescence (AID 1512); format: functional
[6] = target: T2, Alkaline phosphatase, tissue-nonspecific isozyme (Homo sapiens, UniProt P05186); test: human TNAP enzyme inhibitors, SAR follow-up, biochemical, luminescent, dose response (AID 1056)
T2 sequence (P05186 whole entry): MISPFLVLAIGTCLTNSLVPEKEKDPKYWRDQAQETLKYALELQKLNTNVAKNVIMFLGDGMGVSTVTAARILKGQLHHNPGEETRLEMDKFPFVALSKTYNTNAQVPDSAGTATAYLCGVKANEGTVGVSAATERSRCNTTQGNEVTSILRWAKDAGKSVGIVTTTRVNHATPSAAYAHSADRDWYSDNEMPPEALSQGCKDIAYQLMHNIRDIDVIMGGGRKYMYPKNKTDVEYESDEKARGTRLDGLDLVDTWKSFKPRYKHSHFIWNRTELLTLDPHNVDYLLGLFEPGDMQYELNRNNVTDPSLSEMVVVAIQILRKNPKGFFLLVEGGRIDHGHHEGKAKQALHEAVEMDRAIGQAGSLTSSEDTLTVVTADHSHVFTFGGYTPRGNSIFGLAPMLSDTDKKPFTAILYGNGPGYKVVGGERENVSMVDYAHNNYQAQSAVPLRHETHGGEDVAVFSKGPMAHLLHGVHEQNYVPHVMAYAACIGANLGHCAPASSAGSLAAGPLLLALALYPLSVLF

[7] = target: T3, Replicative DNA helicase DnaB (Mycobacterium tuberculosis, UniProt P9WMR3); test: DnaB intein splicing inhibitors, dose response, biochemical, cell-free fluorescence (AID 449749); format: functional
T3 sequence (P9WMR3 whole entry): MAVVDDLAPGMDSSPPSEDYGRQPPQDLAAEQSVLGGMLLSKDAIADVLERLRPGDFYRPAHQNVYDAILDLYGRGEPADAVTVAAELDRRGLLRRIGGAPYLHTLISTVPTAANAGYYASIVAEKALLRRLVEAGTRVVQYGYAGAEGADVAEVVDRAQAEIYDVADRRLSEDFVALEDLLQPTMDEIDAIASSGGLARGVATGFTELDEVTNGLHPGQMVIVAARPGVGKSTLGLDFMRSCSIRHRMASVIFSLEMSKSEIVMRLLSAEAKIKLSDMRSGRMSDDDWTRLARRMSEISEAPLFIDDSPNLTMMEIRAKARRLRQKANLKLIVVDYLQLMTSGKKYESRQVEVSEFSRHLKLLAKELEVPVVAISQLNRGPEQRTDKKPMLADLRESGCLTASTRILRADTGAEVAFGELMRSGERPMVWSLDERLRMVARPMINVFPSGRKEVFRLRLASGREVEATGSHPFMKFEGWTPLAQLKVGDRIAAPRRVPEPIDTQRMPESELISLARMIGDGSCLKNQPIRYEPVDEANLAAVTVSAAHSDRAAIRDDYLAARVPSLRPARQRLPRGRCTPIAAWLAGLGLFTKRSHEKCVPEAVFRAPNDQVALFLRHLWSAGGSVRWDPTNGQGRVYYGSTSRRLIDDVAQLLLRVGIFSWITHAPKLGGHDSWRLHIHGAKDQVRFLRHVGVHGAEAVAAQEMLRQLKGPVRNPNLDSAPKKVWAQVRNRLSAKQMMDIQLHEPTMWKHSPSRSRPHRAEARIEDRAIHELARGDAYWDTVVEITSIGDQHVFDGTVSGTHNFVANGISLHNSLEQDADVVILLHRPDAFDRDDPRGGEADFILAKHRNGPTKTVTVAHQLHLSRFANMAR

Protein RecA = target: T4, Protein RecA (Mycobacterium tuberculosis, UniProt P9WHJ3); test: Fluorescence Cell-Free Homogeneous Dose Retest to Identify Inhibitors of RecA-Intein Splicing Activity. [Related pubchem assays (depositor defined):AID2097, AID2223, AID489010, AID492950]; format: functional
T4 sequence (P9WHJ3 whole entry): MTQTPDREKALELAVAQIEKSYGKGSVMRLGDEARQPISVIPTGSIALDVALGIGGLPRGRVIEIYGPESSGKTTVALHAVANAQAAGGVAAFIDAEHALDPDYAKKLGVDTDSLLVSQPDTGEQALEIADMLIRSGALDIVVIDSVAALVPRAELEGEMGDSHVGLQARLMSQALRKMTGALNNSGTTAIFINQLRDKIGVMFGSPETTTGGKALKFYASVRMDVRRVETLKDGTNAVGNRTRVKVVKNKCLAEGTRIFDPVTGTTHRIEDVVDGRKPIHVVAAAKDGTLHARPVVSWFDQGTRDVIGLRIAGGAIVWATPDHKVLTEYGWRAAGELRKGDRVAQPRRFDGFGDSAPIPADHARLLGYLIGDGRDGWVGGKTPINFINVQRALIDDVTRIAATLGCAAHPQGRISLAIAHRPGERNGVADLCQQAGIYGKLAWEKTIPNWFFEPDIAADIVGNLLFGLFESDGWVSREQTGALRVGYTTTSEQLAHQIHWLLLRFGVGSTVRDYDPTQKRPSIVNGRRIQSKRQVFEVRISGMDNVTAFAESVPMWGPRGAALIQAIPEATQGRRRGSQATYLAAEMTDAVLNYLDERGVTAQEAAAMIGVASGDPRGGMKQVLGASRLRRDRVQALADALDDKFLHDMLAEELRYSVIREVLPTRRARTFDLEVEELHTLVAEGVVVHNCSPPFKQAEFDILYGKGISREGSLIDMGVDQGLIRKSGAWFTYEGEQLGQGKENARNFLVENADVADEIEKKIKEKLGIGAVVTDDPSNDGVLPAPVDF

[8] = target: Intestinal-type alkaline phosphatase (Mus musculus, UniProt P24822); test: PubChem AID 488874; format: functional
[9] = target: T5, Intestinal-type alkaline phosphatase (Homo sapiens, UniProt P09923); test: human intestinal alkaline phosphatase activators, dose response, biochemical, luminescence, uHTS hits (AID 463120); format: functional
[10] = target: T5, Intestinal-type alkaline phosphatase; test: human IAP activators, dose response, biochemical, luminescent, uHTS hits, set 2 (AID 488817); format: functional;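 further: potency of activators that raise enzyme activity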
[11] = target: T2, Alkaline phosphatase, tissue-nonspecific isozyme; test: TNAP enzyme activators, dose response, selectivity assay for human IAP activator project, biochemical, TNAP isozyme, human IAP uHTS hits (AID 488886); format: functional;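 further: potency of compounds raising TNAP activity as a selectivity check on IAP activators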

T5 sequence (P09923 whole entry): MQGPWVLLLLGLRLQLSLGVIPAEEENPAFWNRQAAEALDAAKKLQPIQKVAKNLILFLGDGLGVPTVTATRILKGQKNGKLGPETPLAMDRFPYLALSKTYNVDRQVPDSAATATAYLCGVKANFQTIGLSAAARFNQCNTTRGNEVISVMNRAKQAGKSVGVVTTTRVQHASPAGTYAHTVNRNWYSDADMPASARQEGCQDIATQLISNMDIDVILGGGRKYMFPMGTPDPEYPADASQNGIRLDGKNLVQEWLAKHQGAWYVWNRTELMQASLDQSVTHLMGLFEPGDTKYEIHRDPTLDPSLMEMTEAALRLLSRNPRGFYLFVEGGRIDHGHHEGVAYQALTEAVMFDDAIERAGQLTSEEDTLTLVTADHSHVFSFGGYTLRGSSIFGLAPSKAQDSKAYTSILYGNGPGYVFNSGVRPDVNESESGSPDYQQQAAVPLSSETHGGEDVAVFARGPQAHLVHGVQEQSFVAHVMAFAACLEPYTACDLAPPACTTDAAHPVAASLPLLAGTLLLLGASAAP
Sequence of Intestinal-type alkaline phosphatase (Mus musculus, UniProt P24822) (P24822 whole entry): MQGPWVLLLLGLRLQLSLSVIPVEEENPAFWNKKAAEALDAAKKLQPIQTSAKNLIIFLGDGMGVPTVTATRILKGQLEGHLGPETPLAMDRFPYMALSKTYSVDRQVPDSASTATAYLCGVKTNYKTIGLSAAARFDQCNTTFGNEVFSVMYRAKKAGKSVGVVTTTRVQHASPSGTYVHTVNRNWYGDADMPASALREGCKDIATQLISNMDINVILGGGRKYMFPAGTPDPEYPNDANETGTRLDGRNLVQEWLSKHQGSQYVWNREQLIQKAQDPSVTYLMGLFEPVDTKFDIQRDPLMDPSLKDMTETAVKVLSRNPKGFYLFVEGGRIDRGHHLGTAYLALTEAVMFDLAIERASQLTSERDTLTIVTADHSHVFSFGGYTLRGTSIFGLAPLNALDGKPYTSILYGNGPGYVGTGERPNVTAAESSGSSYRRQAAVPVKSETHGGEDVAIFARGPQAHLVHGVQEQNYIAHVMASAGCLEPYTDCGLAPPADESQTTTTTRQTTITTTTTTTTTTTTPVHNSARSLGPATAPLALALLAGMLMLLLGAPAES
Sequence of Alkaline phosphatase, placental type (P05187 whole entry): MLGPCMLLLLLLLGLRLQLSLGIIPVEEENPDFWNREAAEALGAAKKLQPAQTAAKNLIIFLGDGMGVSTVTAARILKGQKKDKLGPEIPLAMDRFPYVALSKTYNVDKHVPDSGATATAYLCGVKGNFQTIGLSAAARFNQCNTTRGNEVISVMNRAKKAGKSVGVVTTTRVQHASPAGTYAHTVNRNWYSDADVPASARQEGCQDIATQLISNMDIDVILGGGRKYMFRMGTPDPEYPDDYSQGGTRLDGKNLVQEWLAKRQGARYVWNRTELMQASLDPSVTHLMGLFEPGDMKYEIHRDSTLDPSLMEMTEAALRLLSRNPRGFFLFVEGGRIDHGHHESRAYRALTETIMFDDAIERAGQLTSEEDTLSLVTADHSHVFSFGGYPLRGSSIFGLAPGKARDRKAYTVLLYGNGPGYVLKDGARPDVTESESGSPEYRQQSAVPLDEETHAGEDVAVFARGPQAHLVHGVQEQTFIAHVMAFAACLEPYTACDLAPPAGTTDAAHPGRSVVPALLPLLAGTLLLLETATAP
Sequence of Glyceraldehyde-3-phosphate dehydrogenase (P04406 whole entry): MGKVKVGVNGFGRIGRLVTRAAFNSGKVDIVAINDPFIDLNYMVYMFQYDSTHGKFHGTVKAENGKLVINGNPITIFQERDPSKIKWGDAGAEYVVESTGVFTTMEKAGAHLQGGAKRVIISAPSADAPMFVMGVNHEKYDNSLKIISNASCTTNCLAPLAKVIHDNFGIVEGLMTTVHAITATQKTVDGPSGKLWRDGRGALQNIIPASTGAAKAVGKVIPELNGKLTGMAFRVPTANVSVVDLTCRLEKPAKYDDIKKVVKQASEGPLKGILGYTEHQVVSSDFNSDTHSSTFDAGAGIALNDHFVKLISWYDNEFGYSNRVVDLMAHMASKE

SMILES | IC50 [3] | IC50 [8] | EC50 [9] | EC50 [10] | EC50 [11] | further results
O=C(c1cccc(Br)c1)c1coc2ccc(O)cc12 | – | – | – | – | – | AC50 [1]: 0.913 µM (active); AC50 [2]: 23.1 µM (active)
CC1CCN(CCNC(=O)C2CCCN(S(=O)(=O)c3cccc4nsnc34)C2)CC1 (configuration not stated) | 15.8 µM (active) | – | – | – | – | –
CN(C)C(=O)N1CCN(S(=O)(=O)c2ccc3ccccc3c2)CC1 | 12.9 µM (active) | – | – | – | – | –
CCCc1c(O)oc2nnc(C)c-2c1C | – | – | – | – | – | IC50 [4]: > 100 µM (not active); IC50 [5]: > 100 µM (inactive); IC50 [6]: > 100 µM (inactive); AC50 [7]: 23.6 µM (active); EC50 (Protein RecA): 14.8 µM (active)
CSCCC(NS(=O)(=O)c1ccc(C)cc1)C(=O)NNC(=O)c1csc(N2CCOCC2)n1 (configuration not stated) | – | 66.6 µM (active) | 9.84 µM (active) | 14.1 µM (active) | 19.1 µM (active) | –
Cc1cc(=O)[nH]c(-n2[nH]c3c(c2=O)CCCC3)n1 | – | > 100 µM (inactive) | 9.58 µM (active) | 19.8 µM (active) | 12.2 µM (active) | –
